# Measured values as given in patent US7981896B2 (Athersys, Inc., priority 2006, dated 2011).
# Biological target: T1, human histamine H3 receptor (Homo sapiens, UniProt Q9Y5N1)
# T1 construct: endogenous in cells; host or cells: HT1080-Gqαi5 RAGE clone (RAGE-H3), human fibrosarcoma line; integrated RAGE vector pFG8-HH3 supplies exon 1, the cell's own gene supplies the other exons
# Test: Competition radioligand binding assay with [125I]iodoproxyfan on membranes of RAGE-H3 (HT1080-Gqαi5) cells expressing human H3 receptor
# Conditions: ~0.15 nM [125I]iodoproxyfan, 1.5 hrs at room temperature, head does not name the quantity (apparent Ki by Cheng-Prussof)
# Protocol: Representative compounds of the present invention that were prepared by the procedures of Examples 1-83 were evaluated in binding assays against cells expressing human H3 receptor by the following procedure.
# [^125I]iodoproxyfan (2000 Ci/mmol) was obtained from Amersham Bioscience (Piscataway, N.J.). All other chemicals were either from Sigma-Aldrich (St. Louis, Mo.) or Tocris Cookson Inc. (Ellisville, Mo.).
# The human histamine H3 receptor was stably expressed in HT1080 cells containing the chimeric G-protein, Gq[…]i5 (Coward et al., Anal Biochem 1999; 270:242-8). HT1080-Gqαi5 cells were grown in alpha-modified MEM containing 10% fetal bovine serum and 7 μg/ml blasticidin at 37° C. in 5% CO2/95% atmosphere. Cells (4.8×10^9) were irradiated with 50 rads from a ^137Cs source and the pFG8-HH3 RAGE (Random Activation of Gene Expression; see Harrington et al., Nature Biotechnology. 2001; 19:440-45) vector was subsequently integrated into the cells via electroporation (250V, 600 μF, 50Ω). The RAGE vector pFG8-HH3 contained cDNA sequence coding for the first exon (83 amino acids) of human H3 receptor. After electroporation, cells were plated in T75 flasks and grown in alpha-modified MEM. The culture medium was replaced 48 hrs after electroporation with alpha-modified MEM, 10% fetal bovine serum, 500 μg/ml hygromycin B and 3 μg/ml puromycin. Medium was replaced every four days during cell expansion. To identify RAGE activated cells expressing the H3 receptor, pools of approximately 10,000 colonies (5×10^7-1.5×10^8 cells total) were screened by PCR for the desired gene product (using primers specific to the RAGE vector and exon 2 of the H3 receptor). […] Positive 100 cells/well pools were identified by PCR, confirmed by sequencing, and subsequently subcloned to 0.8 cells/well. Once clones expressing the H3 receptor were identified by PCR analysis, assays (FLIPR or radioligand binding) were performed to confirm that the activated gene produced functional protein. The protein expression in the initial clones obtained from the RAGE library was increased by growth in the presence of methotrexate. Since the integrated RAGE vector contains the DHFR gene, such treatment selects for cells that have amplified the genetic locus containing the RAGE insert. Subclones obtained after methotrexate amplification were tested for functional activity in FLIPR assays to identify the clone that was most suitable for HTS. The final HT1080-Gqαi5 RAGE clone (RAGE-H3) expressing the human histamine H3 receptor was grown in alpha-modified MEM containing 10% fetal bovine serum, 3 μg/ml puromycin, 500 μg/ml hygromycin B, 3.2 μM methotrexate at 37° C. in 5% CO2/95% atmosphere.
# RAGE-H3 cells (10^9) were washed twice with cold PBS, scraped off the plates, and centrifuged at 1000×g for 5 minutes. Cells were resuspended in ice-cold 10 mM Tris HCl, pH 7.4, containing 5 mM EDTA and protease inhibitor cocktail tablets (Roche Molecular Biochemicals). After incubating on ice for 10 min, the cells were homogenized with a dounce homogenizer or a polytron tissue grinder, and centrifuged at 1000×g for 10 min at 4° C. The resulting supernatant was centrifuged at 32,000×g for 30 min at 4° C. The membrane pellets were resuspended in 50 mM Tris HCl, pH 7.4, and stored at −80° C. until use. Protein concentration was determined by the Bradford method (Bio-Rad Laboratories, CA).
# Binding assays were carried out in 96-well polypropylene plates in 50 mM Tris HCl, pH 7.4, containing 1 mM EDTA. Reaction mixtures contained 100 μl of membrane suspension, 50 μl of 4% DMSO, and 50 μl of increasing amounts of [^125I]iodoproxyfan (final concentration 0.0005-1.8 nM for human H3 receptor saturation binding assay). Nonspecific binding was defined by adding 10 μM clobenpropit to the reaction mixtures. […]
# T1 sequence (Q9Y5N1 whole entry): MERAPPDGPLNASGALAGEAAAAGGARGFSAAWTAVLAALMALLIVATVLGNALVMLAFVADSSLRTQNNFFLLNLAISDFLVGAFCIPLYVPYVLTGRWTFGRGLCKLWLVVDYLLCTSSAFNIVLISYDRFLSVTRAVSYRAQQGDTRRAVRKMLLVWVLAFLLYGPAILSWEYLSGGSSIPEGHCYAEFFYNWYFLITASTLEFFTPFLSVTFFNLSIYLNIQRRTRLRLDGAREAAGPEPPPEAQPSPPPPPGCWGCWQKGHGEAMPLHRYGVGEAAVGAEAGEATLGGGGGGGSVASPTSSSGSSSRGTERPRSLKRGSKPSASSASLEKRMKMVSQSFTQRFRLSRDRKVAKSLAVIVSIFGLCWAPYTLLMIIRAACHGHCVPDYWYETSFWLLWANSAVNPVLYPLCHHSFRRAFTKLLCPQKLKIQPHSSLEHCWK
row,Ki,Compound
1,< 10 nM,"CCCCc1c(C)nn(-c2ccc(OCCCN3CCCC3)cc2)c1C [Example 38, 4-Butyl-3,5-dimethyl-1-[4-(3-pyrrolidin-1-ylpropoxy)phenyl]-1H-pyrazole]"
2,< 10000 nM,"CN(C)C1CCN(CCCOc2ccc(-n3nc(C(F)(F)F)cc3-c3ccccc3)cc2)C1 (stereo not shown) [Example 52, Dimethyl-(1-{3-[4-(5-phenyl-3-trifluoromethyl-pyrazol-1-yl)-phenoxy]-propyl}-pyrrolidin-3-yl)-amine]"
3,< 10 nM,"Cc1cc(OCCCN2CCCC2)ccc1-n1nc(C(C)C)cc1C(C)C [Example 61, 3,5-Diisopropyl-1-[2-methyl-4-(3-pyrrolidin-1-ylpropoxy)phenyl]-1H-pyrazole]"
4,< 100 nM,"FC(F)(F)c1cc(/C=C/c2ccccc2)n(-c2ccc(OCCCN3CCCC3)cc2)n1 [Example 4, 1-[4-(3-Pyrrolidin-1-ylpropoxy)phenyl]-5-styryl-3-trifluoromethyl-1H-pyrazole]"
5,< 1 nM,"Cc1cc(C(=O)Nc2ccccc2)n(-c2ccc(OCCCN3CCCC3)cc2)n1 [Example 81, 5-Methyl-2-[4-(3-pyrrolidin-1-ylpropoxy)phenyl]-2H-pyrazole-3-carboxylic acid phenylamide]"
6,< 10 nM,"Cc1cc(-c2ccccc2)nn1-c1ccc(OCCCN2CCCC2)cc1 [Example 40, 5-Methyl-3-phenyl-1-[4-(3-pyrrolidin-1-ylpropoxy)phenyl]-1H-pyrazole]"
7,< 10 nM,"CC(C)c1cc(C(C)C)n(-c2ccc(OCCCN3CCCC3)cc2)n1 [Example 24, 3,5-Diisopropyl-1-[4-(3-pyrrolidin-1-yl-propoxy)-phenyl]-1H-pyrazole]"
8,< 100 nM,"FC(F)(F)c1cc(-c2cc3ccccc3o2)n(-c2ccc(OCCCN3CCCC3)cc2)n1 [Example 63, 5-Benzofuran-2-yl-1-[4-(3-pyrrolidin-1-ylpropoxy)phenyl]-3-trifluoromethyl-1H-pyrazole]"
9,< 100 nM,"c1ccc2nn(-c3ccc(OCCCN4CCCC4)cc3)cc2c1 [Example 18, 2-[4-(3-Pyrrolidin-1-ylpropoxy)phenyl]-2H-indazole]"
10,< 10 nM,"Cc1cc(C(=O)NC2CCCCC2)n(-c2ccc(OC3CCN(C(C)C)CC3)cc2)n1 [Example 12, 2-[4-(1-Isopropylpiperidin-4-yloxy)phenyl]-5-methyl-2H-pyrazole-3-carboxylic acid cyclohexylamide]"
11,< 1000 nM,"CCc1cc(CC)n(-c2ccc(OCCCN3CCOCC3)cc2)n1 [Example 23, 3,5-Diethyl-1-[4-(3-morpholin-1-ylpropoxy)phenyl]-1H-pyrazole]"
12,< 10 nM,"3-Methyl-1-[4-(3-piperidin-1-yl-propoxy)-phenyl]-1,4,5,6-tetrahydro-cyclopentapyrazole [Example 59]"

# The remaining lines, values behind:
row,Compound,Ki
1,"Cc1cc(C(=O)N2CCCC2)n(-c2ccc(OCCCN3CCCC3)cc2)n1 [Example 78, {5-Methyl-2-[4-(3-pyrrolidin-1-ylpropoxy)phenyl]-2H-pyrazol-3-yl}pyrrolidin-1-ylmethanone]",< 10 nM
2,"Cc1cc(C(=O)NC2CCCCC2)n(-c2ccc(OCCCN3CCCCC3)cc2)n1 [Example 75, 5-Methyl-2-[4-(3-piperidin-1-ylpropoxy)phenyl]-2H-pyrazole-3-carboxylic acid cyclohexylamide]",< 1 nM
3,Cc1cc(CC(C)C)nn1-c1ccc(OCCCN2CCCCC2)cc1 [Example 30],< 10 nM
4,"CCc1c(C)nn(-c2ccc(OCCCN3CCCC3)cc2)c1C [Example 37, 4-Ethyl-3,5-dimethyl-1-[4-(3-pyrrolidin-1-ylpropoxy)phenyl]-1H-pyrazole]",< 10 nM
5,"FC(F)(F)c1cc(-c2ccccc2)n(-c2ccc(OCCCN3CCOCC3)cc2)n1 [Example 53, 4-{3-[4-(5-Phenyl-3-trifluoromethyl-pyrazol-1-yl)-phenoxy]-propyl}-morpholine]",< 1000 nM
6,"Cc1nn(-c2ccc(OCCCN3CCCC3)cc2)c(C)c1C [Example 36, 3,4,5-Trimethyl-1-[4-(3-pyrrolidin-1-ylpropoxy)phenyl]-1H-pyrazole]",< 10 nM
7,"Cc1cc(C(=O)NC2CCCCC2)n(-c2ccc(OCCC3CCCN3C)cc2)n1 (stereo not shown) [Example 77, 5-Methyl-2-{4-[2-(1-methylpyrrolidin-2-yl)ethoxy]phenyl}-2H-pyrazole-3-carboxylic acid cyclohexylamide]",< 1000 nM
8,"Cc1cc(C(=O)NC2CCCCC2)n(-c2ccc(OCCCN3CCCC3)cc2)n1 [Example 73, 5-Methyl-2-[4-(3-pyrrolidin-1-yl-propoxy)-phenyl]-2H-pyrazole-3-carboxylic acid cyclohexylamide]",< 1 nM
9,"Cc1nn(-c2ccc(OCCCN3CCCC3)cc2)c2c1CCCC2 [Example 55, 3-Methyl-1-[4-(3-pyrrolidin-1-yl-propoxy)-phenyl]-4,5,6,7-tetrahydro-1H-indazole]",< 10 nM
10,Cc1cc(-c2ccccc2)n(-c2ccc(OCCCN3CCCC3)cc2)n1 [Example 41],< 10 nM
11,"Cc1cc(C(=O)NC2CCCCC2)n(-c2ccc(OCCCN3CCOCC3)cc2)n1 [Example 76, 5-Methyl-2-[4-(3-morpholin-4-ylpropoxy)phenyl]-2H-pyrazole-3-carboxylic acid cyclohexylamide]",< 10 nM
12,"Cc1nn(-c2ccc(OCCCN3CCCC3)cc2)c2c1sc1ccccc12 [Example 64, 3-Methyl-1-[4-(3-pyrrolidin-1-yl-propoxy)-phenyl]-1H-benzo[4,5]thieno[3,2-c]pyrazole]",< 10 nM
13,"FC(F)(F)c1cc(-c2ccccc2)n(-c2ccc(OCCCN3CCCCC3)cc2)n1 [Example 54, 1-{3-[4-(5-Phenyl-3-trifluoromethyl-pyrazol-1-yl)-phenoxy]-propyl}-piperidine]",< 100 nM
14,"CC1CCCN1CCCOc1ccc(-n2nc(C(F)(F)F)c3oc4ccccc4c32)cc1 (stereo not shown) [Example 67, 3-{4-[3-(2-Methyl-pyrrolidin-1-yl)-propoxy]-phenyl}-1-trifluoromethyl-3H-8-oxa-2,3-diaza-cyclopenta[a]indene]",< 100 nM
15,"c1ccc2c(c1)cnn2-c1ccc(OCCCN2CCCC2)cc1 [Example 20, 1-[4-(3-Pyrrolidin-1-ylpropoxy)phenyl]-1H-indazole]",< 10 nM
16,"Cc1cc(C(=O)NCC2CCCCC2)n(-c2ccc(OCCCN3CCCC3)cc2)n1 [Example 79, 5-Methyl-2-[4-(3-pyrrolidin-1-ylpropoxy)phenyl]-2H-pyrazole-3-carboxylic acid cyclohexylmethylamide]",< 1 nM
17,"CC(C)c1cc(C(C)C)n(-c2ccc(OCCCN3CCCCC3)cc2)n1 [Example 25, 3,5-Diisopropyl-1-[4-(3-piperidin-1-yl-propoxy)-phenyl]-1H-pyrazole]",< 10 nM
18,"Cc1nn(-c2ccc(OCCCN3CCCC3)cc2)c(C)c1-c1ccccc1 [Example 39, 4-Phenyl-3,5-dimethyl-1-[4-(3-pyrrolidin-1-ylpropoxy)phenyl]-1H-pyrazole]",< 10 nM
19,"Cc1cc(CC(C)C)n(-c2ccc(OCCCN3CCCC3)cc2)n1 [Example 28, 5-Isobutyl-3-methyl-1-[4-(3-pyrrolidin-1-ylpropoxy)-phenyl]-1H-pyrazole]",< 100 nM
20,"CCc1cc(CC)n(-c2ccc(OCCCN3CCCCC3)cc2)n1 [Example 22, 3,5-Diethyl-1-[4-(3-piperidin-1-ylpropoxy)phenyl]-1H-pyrazole]",< 10 nM
21,"Cc1cc(CC(C)C)n(-c2ccc(OCCCN3CCCCC3)cc2)n1 [Example 29, 5-Isobutyl-3-methyl-1-[4-(3-piperidin-1-ylpropoxy)-phenyl]-1H-pyrazole]",< 100 nM
22,Cc1cc(CC(C)C)nn1-c1ccc(OCCCN2CCCC2)cc1 [Example 31],< 10 nM
